According to patent US20140336182A1, “Aurora Kinase Modulators and Method of Use” (Amgen Inc., priority 2013, published 2014):

Tested on: HeLa cells
Test: HeLa cell 24 hr ploidy assay (DNA content)
Assay type: cell-based
Details: Homo sapiens, HeLa, HeLa cells, 4N ploidy, average, read-out: 24h_4NPloidy EC50_IP (uM Avg)
In short: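 HeLa cells (1×10^4/well, MEM+10% FBS) cultured 24 h, treated with serially diluted compounds (0.25% DMSO final), then fixed, permeabilized and stained with Hoechst 33342 (0.5 ug/ml). Imaging quantified % 4N and >4N cells; EC50 IP and EC50 transit derived from dose curves.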

SMILES	EC50
Cc1csc(-c2nnc(Nc3ccc(Oc4ccnc5cc(C#N)ccc45)cc3)c3ccccc23)c1 [compound 170]	0.007 µM
COc1cnc2c(Oc3ccc(Nc4nnc(-c5cc6ccccc6s5)c5ccccc45)cc3)ccnc2c1 [compound 171]	0.004 µM
COc1cnc2c(Oc3ccc(Nc4nnc(-c5ccc(C(F)(F)F)c(Cl)c5)c5ccccc45)cc3)ccnc2c1 [compound 172, 4-(3-chloro-4-(trifluoromethyl)phenyl)-N-(4-((7-(methyloxy)-1,5-naphthyridin-4-yl)oxy)phenyl)-1-phthalazinamine]	0.034 µM
COc1cnc2c(Oc3ccc(Nc4nnc(N5CC[C@H]6CCCC[C@H]6C5)c5ccccc45)cc3)ccnc2c1 [compound 173]	0.006 µM
N#Cc1ccc2c(Oc3ccc(Nc4nnc(-c5ccccc5)c5ccccc45)cn3)ccnc2c1 [compound 174]	≥ 1.2 µM
CCOc1nc(-c2nnc(Nc3ccc(Oc4ccnc5cc(OC)cnc45)cc3)c3ccccc23)cs1 [compound 175]	0.059 µM
COc1cnc2c(Oc3ccc(Nc4nnc(-c5cc6ccccc6o5)c5ccccc45)cc3)ccnc2c1 [compound 176]	0.008 µM
COc1cnc2c(Oc3ccc(Nc4nnc(-c5ccc(C(N)=O)cc5)c5ccccc45)cc3)ccnc2c1 [compound 177]	> 1.2 µM
COc1cnc2c(Oc3ccc(Nc4nnc(-c5ccc(C)nc5F)c5ccccc45)cc3)ccnc2c1 [compound 178]	0.027 µM
O=C(Nc1cc(Oc2ccc(Nc3nnc(-c4ccccc4)c4ccccc34)cc2F)ccn1)N1CCOCC1 [compound 179]	0.226 µM
COc1cnc2c(Oc3ccc(Nc4nnc(-c5ccc(F)c(OC)c5)c5ccccc45)cc3)ccnc2c1 [compound 180]	0.025 µM
COc1cnc2c(Oc3ccc(Nc4nnc(-c5ccc(C#N)cc5)c5ccccc45)cc3)ccnc2c1 [compound 181]	0.104 µM
COc1cnc2c(Oc3ccc(Nc4nnc(-c5cnc6ccccc6c5)c5ccccc45)cc3)ccnc2c1 [compound 182]	0.032 µM
COc1cnc2c(Oc3ccc(Nc4nnc(-c5cccc6[nH]ccc56)c5ccccc45)cc3)ccnc2c1 [compound 183]	0.052 µM
Cc1ccsc1-c1nnc(Nc2ccc(Oc3ccnc4cc(C#N)ccc34)cc2)c2ccccc12 [compound 184]	0.13 µM
COc1cnc2c(Oc3ccc(Nc4nnc(-c5sccc5C)c5ccccc45)cc3)ccnc2c1 [compound 185]	0.241 µM
COc1cccc(-c2nnc(Nc3ccc(Oc4ccnc5ccccc45)c(F)c3)c3ccccc23)n1 [compound 186]	0.031 µM
COc1cnc2c(Oc3ccc(Nc4nnc(-c5ccc(C)cc5)c5ccccc45)cc3F)ccnc2c1 [compound 187]	0.006 µM
COc1cnc2c(Oc3ccc(Nc4nnc(-c5cc(C)cc(C)c5)c5ccccc45)cc3)ccnc2c1 [compound 188]	0.051 µM
COc1cnc2c(Oc3ccc(Nc4nnc(-c5ncc(C)s5)c5ccccc45)cc3)ccnc2c1 [compound 189]	0.191 µM

SMILES	EC50
COc1cnc2c(Oc3ccc(Nc4nnc(-c5ccc(F)nc5)c5ccccc45)cc3)ccnc2c1 [compound 190, 4-(6-fluoro-3-pyridinyl)-N-(4-((7-(methyloxy)-1,5-naphthyridin-4-yl)oxy)phenyl)-1-phthalazinamine]	0.129 µM
COc1cnc2c(Oc3ccc(Nc4nnc(-c5cccnc5F)c5ccccc45)cc3)ccnc2c1 [compound 191]	> 1.2 µM
COc1cnc2c(Oc3ccc(Nc4nnc(-c5ccc(C)c(C)c5)c5ccccc45)cc3)ccnc2c1 [compound 192]	0.005 µM
COc1cnc2c(Oc3ccc(Nc4nnc(-c5ccc(F)c(Cl)c5)c5ccccc45)cc3)ccnc2c1 [compound 193, 4-(3-chloro-4-fluorophenyl)-N-(4-((7-(methyloxy)-1,5-naphthyridin-4-yl)oxy)phenyl)-1-phthalazinamine]	0.027 µM
COc1cnc2c(Oc3ccc(Nc4nnc(-c5ccc(N(C)C)cc5)c5ccccc45)cc3)ccnc2c1 [compound 194]	0.033 µM
COc1cnc2c(Oc3ccc(Nc4nnc(-c5ccc6sc(C)nc6c5)c5ccccc45)cc3)ccnc2c1 [compound 195, 4-(2-methyl-1,3-benzothiazol-5-yl)-N-(4-((7-(methyloxy)-1,5-naphthyridin-4-yl)oxy)phenyl)-1-phthalazinamine]	0.197 µM
CCCc1cc(-c2ccccc2)nnc1Nc1ccc(Oc2ccnc3cc(C#N)ccc23)cc1 [compound 196]	0.342 µM
COc1cnc2c(Oc3ccc(Nc4nnc(-c5cccc(N6CCCCC6)c5)c5ccccc45)cc3)ccnc2c1 [compound 197]	0.021 µM
COc1cnc2c(Oc3ccc(Nc4nnc(-c5ccc(N6CCCCC6)cc5)c5ccccc45)cc3)ccnc2c1 [compound 198]	0.399 µM
CCc1cc(-c2ccc(C)cc2)nnc1Nc1ccc(Oc2ccnc3cc(OC)cnc23)cc1 [compound 199]	0.018 µM
COc1cnc2c(Oc3ccc(Nc4nnc(-c5ncco5)c5ccccc45)cc3)ccnc2c1 [compound 200]	0.314 µM
COc1cnc2c(Oc3ccc(Nc4nnc(-c5ccc(Cl)c(Cl)c5)c5ccccc45)cc3)ccnc2c1 [compound 201, 4-(3,4-dichlorophenyl)-N-(4-((7-(methyloxy)-1,5-naphthyridin-4-yl)oxy)phenyl)-1-phthalazinamine]	0.022 µM
Cn1cncc1-c1cc2nccc(Oc3ccc(Nc4nnc(-c5ccccc5)c5ccccc45)cc3)c2s1 [compound 202, N-(4-((2-(1-methyl-1H-imidazol-5-yl)thieno[3,2-b]pyridin-7-yl)oxy)phenyl)-4-phenyl-1-phthalazinamine]	0.011 µM
Cc1ccc(-c2nnc(Nc3ccc(Oc4ccnc5cc(-c6cncn6C)sc45)cc3)c3ccccc23)cc1 [compound 203]	0.002 µM
COc1cnc2c(Oc3ccc(Nc4nnc(-c5ccc6c(ccn6C)c5)c5ccccc45)cc3)ccnc2c1 [compound 204, 4-(1-methyl-1H-indol-5-yl)-N-(4-((7-(methyloxy)-1,5-naphthyridin-4-yl)oxy)phenyl)-1-phthalazinamine]	0.021 µM
CCc1cc(-c2ccc(C)s2)nnc1Nc1ccc(Oc2ccnc3cc(OC)cnc23)cc1 [compound 205, 4-ethyl-N-(4-((7-(methyloxy)-1,5-naphthyridin-4-yl)oxy)phenyl)-6-(5-methyl-2-thienyl)-3-pyridazinamine]	0.074 µM
COc1cnc2c(Oc3ccc(Nc4nnc(-c5ccc6cc[nH]c6c5)c5ccccc45)cc3)ccnc2c1 [compound 206]	0.002 µM
N#Cc1ccc2c(Sc3ccc(Nc4nnc(-c5ccccc5)c5ccccc45)cc3)ccnc2c1 [compound 208]	0.023 µM
COc1cnc2c(Oc3ccc(Nc4nnc(-c5ccc(C)c(N)c5)c5ccccc45)cc3)ccnc2c1 [compound 209]	0.004 µM
CCc1cc(-c2cc(C)cs2)nnc1Nc1ccc(Oc2ccnc3cc(OC)cnc23)cc1 [compound 210]	0.056 µM

SMILES	EC50
COc1cc2nccc(Oc3ccc(Nc4nnc(-c5ccc(C)cc5)c5ccccc45)cc3)c2cc1C(N)=O [compound 211]	0.002 µM
COc1cnc2c(Oc3ccc(Nc4nnc(-c5cn[nH]c5)c5ccccc45)cc3)ccnc2c1 [compound 212]	0.501 µM
COc1cnc2c(Oc3ccc(Nc4nnc(-c5ccc(OC)c(C)c5)c5ccccc45)cc3)ccnc2c1 [compound 213]	0.044 µM
COc1cnc2c(Oc3ccc(Nc4nnc(-c5ccc(F)c(F)c5)c5ccccc45)cc3)ccnc2c1 [compound 214]	0.033 µM
COc1cnc2c(Oc3ccc(Nc4nnc(-c5cncnc5)c5ccccc45)cc3)ccnc2c1 [compound 215, N-(4-((7-(methyloxy)-1,5-naphthyridin-4-yl)oxy)phenyl)-4-(5-pyrimidinyl)-1-phthalazinamine]	> 1.2 µM
COc1cnc2c(Oc3ccc(Nc4nnc(-c5cnn(C)c5)c5ccccc45)cc3)ccnc2c1 [compound 216]	0.074 µM
N#Cc1ccc(-c2nnc(Nc3ccc(Oc4ccnc5cc(C#N)ccc45)cc3)c3ccccc23)cc1 [compound 217]	0.369 µM
COc1cnc2c(Oc3ccc(Nc4nnc(-c5ccccc5)c5ccsc45)cc3)ccnc2c1 [compound 218, N-(4-((7-(methyloxy)-1,5-naphthyridin-4-yl)oxy)phenyl)-4-phenylthieno[2,3-d]pyridazin-7-amine]	0.061 µM
COc1cnc2c(Oc3ccc(Nc4nnc(-c5cccc(Cl)c5)c5ccccc45)cc3)ccnc2c1 [compound 219]	0.031 µM
COc1cnc2c(Oc3ccc(Nc4nnc(-c5ccc(F)cc5)c5ccccc45)cc3)ccnc2c1 [compound 220, 4-(4-fluorophenyl)-N-(4-((7-(methyloxy)-1,5-naphthyridin-4-yl)oxy)phenyl)-1-phthalazinamine]	0.036 µM
CCc1ccc(-c2nnc(Nc3ccc(Oc4ccnc5cc(OC)cnc45)cc3)c3ccccc23)cc1 [compound 221]	0.015 µM
COc1cnc2c(Oc3ccc(Nc4nnc(-c5ccc(Cl)cc5)c5ccccc45)cn3)ccnc2c1 [compound 222, 4-(4-chlorophenyl)-N-(6-((7-(methyloxy)-1,5-naphthyridin-4-yl)oxy)-3-pyridinyl)-1-phthalazinamine]	0.026 µM
COc1cnc2c(Oc3ccc(Nc4nnc(-c5ccnn5C)c5ccccc45)cc3)ccnc2c1 [compound 223]	> 1.2 µM
COc1cnc2c(Oc3ccc(Nc4nnc(-c5ccc(C)c(Cl)c5)c5ccccc45)cc3)ccnc2c1 [compound 224]	0.007 µM
COc1cc2nccc(Oc3ccc(Nc4nnc(-c5ccccc5)c5ccccc45)cc3)c2cc1C(N)=O [compound 225]	0.004 µM
COc1cnc2c(Oc3ccc(Nc4nnc(-c5cccc(C(=O)N(C)C)c5)c5ccccc45)cc3)ccnc2c1 [compound 226]	> 1.2 µM
COc1cnc2c(Oc3ccc(Nc4nnc(-c5ccc(OC)c(F)c5)c5ccccc45)cc3)ccnc2c1 [compound 227]	0.061 µM
COc1cnc2c(Oc3ccc(Nc4nnc(-c5ccc(Cl)cn5)c5ccccc45)cc3)ccnc2c1 [compound 228, 4-(5-chloro-2-pyridinyl)-N-(4-((7-(methyloxy)-1,5-naphthyridin-4-yl)oxy)phenyl)-1-phthalazinamine]	0.035 µM
CCc1ccc(-c2nnc(Nc3ccc(Oc4ccnc5cc(OC)cnc45)cc3)c3ccccc23)s1 [compound 229]	0.026 µM
